Values quoted from earlier work as cited in US20240226016A1, “STARCH BASED PRINTABLE MATERIALS” (ROQUETTE FRERES, priority 2021, published 2024).

Cn1c(=O)c2c(ncn2CC(O)CO)n(C)c1=O (stereo not shown) [diprophylline]
solubility in water (class): freely soluble in water
